In assay [1] the test system is Truncated N-terminal huntington 150 Q-EGFP-Neuron 2a cells. As to the kind of experiment: Measurement of x-Fold (polyglutamine aggregation inhibitory activity). The class given is cell-based. How it is done: In the present invention, the polyglutamine aggregation inhibitory activity (x-Fold) can be measured, for example, by the method described in the Example.
The number of the aggregated cells, and the total number of cells were counted by Array Scan V T1 (manufactured by Cellomics, Pittuburg, USA), and the ratio of the aggregated cells to the total number of cells was determined (x-Fold). […]

For a further assay, the system named is transglutaminase (TGase). As to the kind of experiment: Measurement of TG (TGase inhibitory activity, monodansyl cadaverine / N,N-dimethylcasein fluorescence, FDSS 3000). The format is biochemical. The essentials: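 Compound (1 μL of 10 mM stock) added to 0.1 mL reaction: 100 mM HEPES-NaOH pH 7.5, 1 mM CaCl2, 20 μM monodansyl cadaverine, 0.05 mg/mL N,N-dimethylcasein, 5 μg/mL TGase. Rate of fluorescence change at 340 nm measured; DMSO control set to 100; TG50 is the concentration halving activity.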

Where [2] appears, read: polyglutamine aggregation inhibitory activity, Table 1.
Where [3] appears, read: TGase inhibitory activity value, Table 1.
Where [4] appears, read: ratio of aggregated cells to total number of cells, compound 20 μM, 20 hr, almost 1 without compound, smaller = stronger inhibition.
Where [5] appears, read: TGase activity with compound (10 mM, 1 μL in 0.1 ml enzyme reaction solution), DMSO control taken as 100.
[6] abbreviates: polyglutamine aggregation, Truncated N-terminal huntington 150 Q-EGFP-Neuron 2a cells.
The mark [7] stands for this setting: TGase inhibitory activity measurement, unit not given.

Experimental findings from patent US8853424B2 (Japan Science and Technology Agency, priority 2008, dated 2014) are described below.

`c1ccc(B(OCCN2CCN(CCOB(c3ccccc3)c3ccccc3)CC2)c2ccccc2)cc1` [Example 356]: the x-Fold in assay [1] (setting [2]) was determined as 0.94. The “TGase activity remaining (% of DMSO control = 100)” value in the assay with transglutaminase (TGase) (setting [3]) is 126.

Take `CC(C)(C)B(OCCN)c1ccccc1` [Example 111, aminoethyl tertiary-butyl phenylborinate]: the x-Fold in assay [1] (setting [2]) and in assay [1] (setting [4]) was 1.02 each time. Besides, the “TGase activity remaining (% of DMSO control = 100)” value in the assay on transglutaminase (TGase) (setting [5]) and in the assay with transglutaminase (TGase) (setting [3]) was 121 throughout.

Turning to `NCCOB(c1ccccc1)c1ccccc1B(OCCN)c1ccccc1` [Example 298, 1,2-di(phenylaminoethoxyboryl)benzene], the x-Fold in assay [1] (setting [2]) and in assay [1] (setting [4]) was 1.01 in each case. Further, the “TGase activity remaining (% of DMSO control = 100)” value with transglutaminase (TGase) (setting [5]) and in the assay on transglutaminase (TGase) (setting [3]) was 101 each time.

As to `NCCNCCOB(c1ccccc1)c1ccc(COCc2ccc(B(OCCNCCN)c3ccccc3)cc2)cc1` [Example 399, bis(4,4′-(phenyl-N-aminoethyl-aminoethoxyboryl)benzyl)ether], the x-Fold in assay [1] (setting [6]) and in assay [1] (setting [4]) was 0.96 throughout. Further, the “TGase activity remaining (% of DMSO control = 100)” value with transglutaminase (TGase) (setting [5]) and in the assay on transglutaminase (TGase) (setting [7]) was 53 each time.

For the compound `NCCOB(c1ccc(Cl)c(F)c1)c1ccc(Cl)c(F)c1` [Example 93, aminoethyl bis(4-chloro-3-fluorophenyl)borinate], the x-Fold in assay [1] (setting [2]) and in assay [1] (setting [4]) was 0.93 throughout. Further, the “TGase activity remaining (% of DMSO control = 100)” value was 117 with transglutaminase (TGase) (setting [5]) and 117 with transglutaminase (TGase) (TGase inhibitory activity value, Table 1, listed as 6023).

In the case of `CNCCOB(c1ccccc1)c1ccc(Oc2ccc(B(OCCNC)c3ccc(COCOC)cc3)cc2)cc1` [Example 168, (4-(phenyl-N-methylaminoethoxyboryl)phenyl)-(4′-(methoxymethoxymethylphenyl-N-methylaminoethoxyboryl)phenyl)ether], the x-Fold in assay [1] (setting [2]) and in assay [1] (setting [4]) was 0.72 throughout. Also, the “TGase activity remaining (% of DMSO control = 100)” value in the assay with transglutaminase (TGase) (setting [5]) and in the assay on transglutaminase (TGase) (setting [3]) was 35 throughout.

For `CN(C)CCOB(c1ccccc1)c1ccc(COCc2ccc(B(OCCN(C)C)c3ccccc3)cc2)cc1` [Example 152, di(4,4′-phenyldimethylaminoethoxyboryl)benzylether], the x-Fold is 1.07 in assay [1] (polyglutamine aggregation inhibitory activity, Table 1, listed as 1073) and 1.07 in assay [1] (setting [4]). In addition, the “TGase activity remaining (% of DMSO control = 100)” value in the assay with transglutaminase (TGase) (TGase inhibitory activity value, Table 1, listed as 1073) is on record as 54.

For `CN(C)CCOB(c1ccc(C(F)(F)F)cc1)c1ccc(C(F)(F)F)cc1` [Example 69, 2-dimethylaminoethyl bis(4-trifluoromethylphenyl)borinate], the x-Fold in assay [1] (polyglutamine aggregation inhibitory activity, Table 1, listed as 5034) worked out at 1.02; in assay [1] (setting [4]), 1.02. For the same compound, the “TGase activity remaining (% of DMSO control = 100)” value in the assay on transglutaminase (TGase) (setting [5]) was 76; with transglutaminase (TGase) (TGase inhibitory activity value, Table 1, listed as 5034), 76.

Regarding `Cc1cc(B(OCCN)c2ccccc2)ccc1B(OCCN)c1ccccc1` [Example 146, 1,4-bis(phenyl-2-aminoethoxyboryl) 2-methylbenzene], the x-Fold in assay [1] (setting [2]) and in assay [1] (setting [4]) was 1.02 in each case. The “TGase activity remaining (% of DMSO control = 100)” value in the assay with transglutaminase (TGase) (setting [5]) and in the assay on transglutaminase (TGase) (setting [3]) was 91 each time.

`Cc1ccc(B(OCC2CCCCN2C)c2ccc(C)c(Cl)c2)cc1Cl` (stereo not shown) [Example 163, di(3-chloro-4-methylphenyl)N-methylpiperidinomethylborinate]: the x-Fold in assay [1] (setting [4]) was determined as 1.00. For the same compound, in the assay with transglutaminase (TGase) (setting [5]), the “TGase activity remaining (% of DMSO control = 100)” value turned out to be 109.

In the case of `c1ccc(B2OCCN3CCN(CCOB(c4ccccc4)c4ccc(cc4)Oc4ccc2cc4)CC3)cc1` [Example 196, 4,4′-(phenylpiperazino-O,O-ethoxyboryl)phenylether], the x-Fold in assay [1] (setting [2]) and in assay [1] (setting [4]) was 0.90 each time. Moreover, the “TGase activity remaining (% of DMSO control = 100)” value in the assay with transglutaminase (TGase) (setting [5]) and with transglutaminase (TGase) (setting [3]) was 117 throughout.

For the compound `OB(Cc1ccc(OCc2ccc(B(O)c3ccccc3)cc2)cc1)Cc1ccc(OCc2ccc(B(O)c3ccccc3)cc2)cc1` [Example 187, bis((4,4′-phenylhydroxyboryl)benzyloxybenzyl)hydroxyborane], the x-Fold in assay [1] (setting [2]) and in assay [1] (setting [4]) was 0.97 each time. For the same compound, the “TGase activity remaining (% of DMSO control = 100)” value in the assay with transglutaminase (TGase) (setting [5]) and with transglutaminase (TGase) (setting [3]) was 106 in each case.

As for `Fc1cc(B(OCc2ccccn2)c2cc(F)c(F)c(F)c2)cc(F)c1F` [Example 90, 2-pyridylmethyl bis(3,4,5-trifluorophenyl)borinate], the x-Fold in assay [1] (setting [2]) and in assay [1] (setting [4]) was 0.81 in each case. Further, the “TGase activity remaining (% of DMSO control = 100)” value in the assay on transglutaminase (TGase) (setting [5]) and with transglutaminase (TGase) (setting [3]) was 93 in each case.

In the case of `c1ccc(B(OCCN2CCCCC2)c2ccc(COCc3ccc(B(OCCN4CCCCC4)c4ccccc4)cc3)cc2)cc1` [Example 459, bis(4,4′-(phenyl-1-piperidylethoxyboryl)benzyl)ether], the x-Fold in assay [1] (setting [6]) and in assay [1] (setting [4]) was 1.03 each time. Besides, the “TGase activity remaining (% of DMSO control = 100)” value in the assay on transglutaminase (TGase) (setting [5]) and with transglutaminase (TGase) (setting [7]) was 80 in each case.

Take `Cc1ccc(B(O)c2ccc(Oc3ccc(B(O)c4ccc(C)c(Cl)c4)cc3)cc2)cc1Cl` [Example 251, bis(3-chloro-4-methylphenyl hydroxyborylphenyl)ether]: the x-Fold in assay [1] (setting [4]) is on record as 0.83. In addition, in the assay with transglutaminase (TGase) (setting [5]), the “TGase activity remaining (% of DMSO control = 100)” value was 121.

Turning to `Cc1ccc(B(OC(=O)C(N)CCCNC(N)=O)c2ccc(C)c(Cl)c2)cc1Cl` (stereo not shown) [Example 287, di(3-chloro-4-methylphenyl)(citrullinate-O,N)borane], the x-Fold in assay [1] (setting [2]) and in assay [1] (setting [4]) was 1.00 in each case. Besides, the “TGase activity remaining (% of DMSO control = 100)” value in the assay with transglutaminase (TGase) (setting [5]) and in the assay with transglutaminase (TGase) (setting [3]) was 146 in each case.

For `CNCCOB(c1ccc(COc2ccc(B(OCCNC)c3ccc(C(F)(F)F)cc3)cc2)cc1)c1ccc(C(F)(F)F)cc1` [Example 402, (4′-trifluoromethylphenyl-N-methylaminoethoxyboryl)-4-phenyl(4′-trifluoromethylphenyl-N-methylaminoethoxyboryl-4-benzyl)ether], the x-Fold in assay [1] (setting [6]) and in assay [1] (setting [4]) was 0.57 throughout. The “TGase activity remaining (% of DMSO control = 100)” value with transglutaminase (TGase) (setting [5]) and with transglutaminase (TGase) (setting [7]) was −12 throughout.

Regarding `CCCCC(N)C(=O)OB(c1ccccc1)c1ccccc1` (stereo not shown) [Example 226, diphenyl(2-aminohexanecarboxylate-O,N)borane], the x-Fold in assay [1] (setting [2]) and in assay [1] (setting [4]) was 0.94 in each case. Moreover, the “TGase activity remaining (% of DMSO control = 100)” value with transglutaminase (TGase) (setting [5]) and with transglutaminase (TGase) (setting [3]) was 97 throughout.

For the compound `OB(c1ccc(COCc2ccc(B(O)c3ccc(F)c(F)c3)cc2)cc1)c1ccc(F)c(F)c1` [Example 411, bis(4,4′-(3,4-difluorophenyl-hydroxyboryl)benzyl)ether], the x-Fold in assay [1] (setting [6]) and in assay [1] (setting [4]) was 0.90 throughout. Moreover, the “TGase activity remaining (% of DMSO control = 100)” value in the assay on transglutaminase (TGase) (setting [5]) and with transglutaminase (TGase) (setting [7]) was 138 each time.

Take `COc1ccc(NCCOBc2cccc(COCc3cccc(BOCCNc4ccc(OC)cc4)c3)c2)cc1` [Example 343, bis(3-(4-methoxyphenylaminoethoxyboryl)benzyl)ether]: the x-Fold in assay [1] (setting [2]) and in assay [1] (setting [4]) was 1.02 throughout. Further, the “TGase activity remaining (% of DMSO control = 100)” value in the assay on transglutaminase (TGase) (setting [5]) and in the assay with transglutaminase (TGase) (setting [3]) was 55 throughout.

With `O=C(OB(c1ccc(C(F)(F)F)cc1)c1ccc(C(F)(F)F)cc1)c1ccccn1` [Example 284, di(4-trifluoromethylphenyl) (picolinate-O,N)borane], the x-Fold in assay [1] (setting [2]) and in assay [1] (setting [4]) was 1.03 throughout. Moreover, the “TGase activity remaining (% of DMSO control = 100)” value with transglutaminase (TGase) (setting [5]) and in the assay with transglutaminase (TGase) (setting [3]) was 89 each time.

For the compound `c1ccc(CNCCOB(c2ccccc2)c2cccc3ccccc23)cc1` [Example 204, phenyl naphthyl benzylaminoethylborinate], the x-Fold in assay [1] (setting [2]) and in assay [1] (setting [4]) was 0.79 each time. Also, the “TGase activity remaining (% of DMSO control = 100)” value in the assay on transglutaminase (TGase) (setting [5]) and in the assay with transglutaminase (TGase) (setting [3]) was 61 throughout.

`CCC(N)COB(c1ccccc1)c1ccccc1` (stereo not shown) [Example 228, diphenyl 2-aminobutylborinate]: the x-Fold in assay [1] (setting [2]) and in assay [1] (setting [4]) was 0.98 in each case. Besides, the “TGase activity remaining (% of DMSO control = 100)” value in the assay on transglutaminase (TGase) (setting [5]) and with transglutaminase (TGase) (setting [3]) was 99 throughout.

Turning to `CCN(CC)CC.CN(C)c1ccc2c(-c3ccc(NC(=S)NCC(N)C(=O)OB(c4ccccc4)c4ccccc4)cc3C(=O)[O-])c3ccc(=[N+](C)C)cc-3oc2c1` (stereo not shown) [Example 175, diphenyl(tetramethylrhodamine 2,3-diaminopropionate-O,N)borane], the x-Fold in assay [1] (setting [2]) and in assay [1] (setting [4]) was 0.89 in each case. The “TGase activity remaining (% of DMSO control = 100)” value in the assay with transglutaminase (TGase) (setting [5]) and with transglutaminase (TGase) (setting [3]) was 5 in each case.

Consider `OB(c1ccc(Cl)cc1)c1ccc(Cl)cc1` [Example 115, bis(4-chlorophenyl)borinic acid], for which the x-Fold in assay [1] (setting [4]) was 1.07. In the assay on transglutaminase (TGase) (setting [5]), the “TGase activity remaining (% of DMSO control = 100)” value was found to be 101.
